Literature values as cited in patent US20210000972A1, “NANOPARTICLES FOR SUSTAINED OPHTHALMIC DRUG DELIVERY AND METHODS OF USE” (2C TECH CORP., priority 2017, published 2021).
Read-outs that look alike come from different tables or passages of the source.

## C[C@@H]1C[C@H]2[C@@H]3CCC4=CC(=O)C=C[C@]4(C)[C@@]3(F)[C@@H](O)C[C@]2(C)[C@@]1(O)C(=O)CO [dexamethasone]
Sustained release form (embedded in a lactic co-glycolic copolymer)
  duration of constant concentration: one

## O=C(O)P(=O)(O)O [foscarnet]
intravitreal
  half-life: 12 h

## CC1(C)O[C@@H]2C[C@H]3[C@@H]4CCC5=CC(=O)C=C[C@]5(C)[C@@]4(F)[C@@H](O)C[C@]3(C)[C@]2(C(=O)CO)O1 [triamcinolone acetonide]
Intravitreal suspension, 4 mg
  half-life: 576 h
Intravitreal suspension, the two doses administered (4 mg and 16 mg)
  time the drug lasted: 4 to 6 months

## Avastin: an antibody used for the treatment of macular edema
Intravitreal antibody
  half-life: 140 h
  time detectable: > 30 days
Untreated contralateral eye
  systemic delivery after intravitreal administration: found in the untreated contralateral eye
